{"source": "paper PMC7270110", "about": "“Labeled oxytocin administered via the intranasal route reaches the brain in rhesus macaques” (Nature Communications, 2020)", "assay": "Brain tissue concentration of endogenous OT (d0OT) by LC-MS/MS (terminal experiment)", "assay_type": "in vivo, rhesus macaques (Macaca mulatta)", "details": "for BRAIN OT concentration (endogenous): LC-MS/MS; for Concentrations of endogenous brain oxytocin (OT): molarity calculated for extracellular fluid volume", "method": "Monkeys were divided into three groups, each with two monkeys; each group received the following in a terminal study at the 5th week: Group 1 (Monkeys ID# 1 and ID# 5) received 40 IU of d5OT IN, Group 2 received 80 IU of d5OT IN (Monkeys ID# 2 and ID# 4) and Group 3 received 80 IU of d5OT IV (Monkeys ID# 3 and ID# 6). Animals were perfused on average, 140 ± 7 (mean ± SD) min after d5OT administration (range = 135–149 min) (Table 4). Plasma and CSF were drawn just before administration of d5OT, at the midpoint between d5OT administration and perfusion (~60 min post-d5OT administration), and just before perfusion.\nBrain tissue distribution of d5OT, as well as the endogenous concentrations of OT (d0OT), were measured in the following 12 brain regions: cerebellum, brainstem, striatum, amygdala, thalamus, visual cortex, insular cortex, hypothalamus, hippocampus, mPFC (Brodmann areas 32,25,24), dPFC (Brodmann areas 46,9,10), and OFC (Brodmann areas 14,13,12) (Tables 1, 2 and 3).\nBrain tissue sample preparation: Samples (~1.5 mg per sample) were individually weighed and placed into 12 mm × 75 mm glass tubes containing 1.5 ml ice-cold 1 M acetic acid and 30 µl of OT-d10 internal standard. Tissues were homogenized on ice and the resulting homogenates were poured into individual 15 ml polystyrene tubes. The original glass tube was rinsed with 1 ml acetonitrile, and this rinse was added to the appropriate 15 ml polystyrene tube containing the homogenate. After all homogenizations were complete, 3 ml acetonitrile was added to each tube and extraction proceeded, as described for the plasma and CSF samples.\nLC–MS/MS instrument parameters: Microtiter plates were prepared, as described above, and loaded onto a SIL-30ACMP autosampler set at 4 °C (Shimadzu). Forty microliters of each standard, QC or sample were injected onto an ACE Excel 2 C18-PFP 50 mm × 2.1 mm column (Advanced Chromatography Technologies, LTD, Aberdeen, Scotland) at 50 °C using reversed-phase chromatography. Mobile phase A was 0.1% formic acid in water and mobile phase B was 0.1% formic acid in ACN. The LC time gradient was created using two Nexera LC-30AD pumps (Shimadzu) running at 0.5 ml/min. Chromatography for serum and CSF samples began at 10% B and ended at 16% B at 3.6 min. One minute at 60% B was then required to wash the column, and the pumps re-equilibrated at 10% B for an additional 1.7 min (total run time ~6 min). Outside of the 1.55–3.55 min window during which OT eluted, a divert valve sent the LC effluent to waste.\nHeated electrospray […] in positive mode, with scheduled multiple reaction monitoring (MRM) on a Shimadzu LCMS-8050, was used for detection of OT. The interface temperature was 270 °C and heat block temperature was 170 °C. Gas was supplied by a Peak Genius 1051 nitrogen and air generator (Peak Scientific, Inchinnan, UK). Nitrogen gas was used for nebulizing (1 L/min) and drying (8.2 L/min), while air was used for heating (7.8 L/min). A capillary B needle was used in the interface. Needle protrusion was set to 1.25 mm and probe distance was set to 1.0 mm; both were determined empirically. Argon (Airgas, Radnor, PA) was used for the collision-induced dissociation at 330 kPa. The MS/MS conditions for OT were optimized using the automated MRM optimization procedure in LabSolutions software (Shimadzu). We collected two MRM transitions each, for d0OT (1007.40 > 723.40 and 1007.40 > 285.30), d5OT (1012.00 > 723.40 and 1012.00 > 290.35), and d10OT (1017.70 > 723.35 and 1017.70 > 295.40); the first transition listed in each case was used for quantitation, while the second was used as a reference ion. Retention times for d0OT, d5OT, and d10OT were 3.290, 3.270, and 3.253 min, respectively.\nThe sensitivities of each assay within the method were determined by the lowest and highest concentration calibrators in the calibration curve. The lower limit of quantitation (LLOQ) for d0OT was 10 pg/ml (4 pg/col); the LLOQ for d5OT was 100 pg/ml (40 pg/col). […]", "data": [{"compound": "CC[C@H](C)[C@@H]1NC(=O)[C@H](Cc2ccc(O)cc2)NC(=O)[C@@H](N)CSSC[C@@H](C(=O)N2CCC[C@H]2C(=O)N[C@@H](CC(C)C)C(=O)NCC(N)=O)NC(=O)[C@H](CC(N)=O)NC(=O)[C@H](CCC(N)=O)NC1=O", "note": "[OT, oxytocin]", "values": [{"measurement": "BRAIN OT concentration (endogenous)", "setting": "Insular Cortex, after d5OT 40 IU IN, monkey #5 (F), perfused 138 min post-dose", "result": 0.30, "unit": "pg/mg"}, {"measurement": "BRAIN OT concentration (endogenous)", "setting": "Insular Cortex, after d5OT 80 IU IN, monkey #4 (M), perfused 135 min post-dose", "result": 0.06, "unit": "pg/mg"}, {"measurement": "BRAIN OT concentration (endogenous)", "setting": "Insular Cortex, after d5OT 80 IU IV, monkey #3 (F), perfused 149 min post-dose", "result": 0.16, "unit": "pg/mg"}, {"measurement": "Concentrations of endogenous brain oxytocin (OT)", "setting": "OFC, 40 IN, monkey #1 (F)", "result": "1e-09", "unit": "M"}, {"measurement": "Concentrations of endogenous brain oxytocin (OT)", "setting": "OFC, 40 IN, monkey #5 (F)", "result": "5e-09", "unit": "M"}, {"measurement": "Concentrations of endogenous brain oxytocin (OT)", "setting": "OFC, 80 IN, monkey #2 (M)", "result": "2.2e-09", "unit": "M"}, {"measurement": "Concentrations of endogenous brain oxytocin (OT)", "setting": "OFC, 80 IN, monkey #4 (M)", "result": "9e-09", "unit": "M"}, {"measurement": "Concentrations of endogenous brain oxytocin (OT)", "setting": "OFC, 80 IV, monkey #3 (F)", "result": "2e-09", "unit": "M"}, {"measurement": "BRAIN OT concentration (endogenous)", "setting": "OFC, after d5OT 40 IU IN, monkey #1 (F), perfused 148 min post-dose", "result": 0.22, "unit": "pg/mg"}, {"measurement": "BRAIN OT concentration (endogenous)", "setting": "OFC, after d5OT 40 IU IN, monkey #5 (F), perfused 138 min post-dose", "result": 0.96, "unit": "pg/mg"}, {"measurement": "BRAIN OT concentration (endogenous)", "setting": "OFC, after d5OT 80 IU IN, monkey #2 (M), perfused 136 min post-dose", "result": 0.40, "unit": "pg/mg"}, {"measurement": "BRAIN OT concentration (endogenous)", "setting": "OFC, after d5OT 80 IU IN, monkey #4 (M), perfused 135 min post-dose", "result": 1.59, "unit": "pg/mg"}, {"measurement": "BRAIN OT concentration (endogenous)", "setting": "OFC, after d5OT 80 IU IV, monkey #3 (F), perfused 149 min post-dose", "result": 0.44, "unit": "pg/mg"}, {"measurement": "Concentrations of endogenous brain oxytocin (OT)", "setting": "Striatum, 40 IN, monkey #1 (F)", "result": "3e-09", "unit": "M"}, {"measurement": "Concentrations of endogenous brain oxytocin (OT)", "setting": "Striatum, 40 IN, monkey #5 (F)", "result": "7e-09", "unit": "M"}, {"measurement": "Concentrations of endogenous brain oxytocin (OT)", "setting": "Striatum, 80 IN, monkey #2 (M)", "result": "9e-09", "unit": "M"}, {"measurement": "Concentrations of endogenous brain oxytocin (OT)", "setting": "Striatum, 80 IN, monkey #4 (M)", "result": "9.7e-08", "unit": "M"}, {"measurement": "Concentrations of endogenous brain oxytocin (OT)", "setting": "Striatum, 80 IV, monkey #3 (F)", "result": "7.9e-08", "unit": "M"}, {"measurement": "Concentrations of endogenous brain oxytocin (OT)", "setting": "Striatum, 80 IV, monkey #6 (F)", "result": "8.6e-08", "unit": "M"}, {"measurement": "BRAIN OT concentration (endogenous)", "setting": "Striatum, after d5OT 40 IU IN, monkey #1 (F), perfused 148 min post-dose", "result": 0.63, "unit": "pg/mg"}, {"measurement": "BRAIN OT concentration (endogenous)", "setting": "Striatum, after d5OT 40 IU IN, monkey #5 (F), perfused 138 min post-dose", "result": 1.20, "unit": "pg/mg"}, {"measurement": "BRAIN OT concentration (endogenous)", "setting": "Striatum, after d5OT 80 IU IN, monkey #2 (M), perfused 136 min post-dose", "result": 1.58, "unit": "pg/mg"}, {"measurement": "BRAIN OT concentration (endogenous)", "setting": "Striatum, after d5OT 80 IU IN, monkey #4 (M), perfused 135 min post-dose", "result": 17.81, "unit": "pg/mg"}, {"measurement": "BRAIN OT concentration (endogenous)", "setting": "Striatum, after d5OT 80 IU IV, monkey #3 (F), perfused 149 min post-dose", "result": 14.45, "unit": "pg/mg"}, {"measurement": "BRAIN OT concentration (endogenous)", "setting": "Striatum, after d5OT 80 IU IV, monkey #6 (F), perfused 135 min post-dose", "result": 15.82, "unit": "pg/mg"}, {"measurement": "Concentrations of endogenous brain oxytocin (OT)", "setting": "Thalamus, 40 IN, monkey #1 (F)", "result": "2.4e-08", "unit": "M"}, {"measurement": "Concentrations of endogenous brain oxytocin (OT)", "setting": "Thalamus, 40 IN, monkey #5 (F)", "result": "4e-08", "unit": "M"}, {"measurement": "Concentrations of endogenous brain oxytocin (OT)", "setting": "Thalamus, 80 IN, monkey #2 (M)", "result": "6e-09", "unit": "M"}, {"measurement": "Concentrations of endogenous brain oxytocin (OT)", "setting": "Thalamus, 80 IN, monkey #4 (M)", "result": "1.7e-08", "unit": "M"}, {"measurement": "Concentrations of endogenous brain oxytocin (OT)", "setting": "Thalamus, 80 IV, monkey #3 (F)", "result": "2.1e-08", "unit": "M"}, {"measurement": "Concentrations of endogenous brain oxytocin (OT)", "setting": "Thalamus, 80 IV, monkey #6 (F)", "result": "1.55e-07", "unit": "M"}, {"measurement": "BRAIN OT concentration (endogenous)", "setting": "Thalamus, after d5OT 40 IU IN, monkey #1 (F), perfused 148 min post-dose", "result": 4.39, "unit": "pg/mg"}, {"measurement": "BRAIN OT concentration (endogenous)", "setting": "Thalamus, after d5OT 40 IU IN, monkey #5 (F), perfused 138 min post-dose", "result": 7.31, "unit": "pg/mg"}, {"measurement": "BRAIN OT concentration (endogenous)", "setting": "Thalamus, after d5OT 80 IU IN, monkey #2 (M), perfused 136 min post-dose", "result": 1.02, "unit": "pg/mg"}, {"measurement": "BRAIN OT concentration (endogenous)", "setting": "Thalamus, after d5OT 80 IU IN, monkey #4 (M), perfused 135 min post-dose", "result": 3.09, "unit": "pg/mg"}, {"measurement": "BRAIN OT concentration (endogenous)", "setting": "Thalamus, after d5OT 80 IU IV, monkey #3 (F), perfused 149 min post-dose", "result": 3.85, "unit": "pg/mg"}, {"measurement": "BRAIN OT concentration (endogenous)", "setting": "Thalamus, after d5OT 80 IU IV, monkey #6 (F), perfused 135 min post-dose", "result": 28.34, "unit": "pg/mg"}, {"measurement": "Concentrations of endogenous brain oxytocin (OT)", "setting": "dPFC, 40 IN, monkey #5 (F)", "result": "1e-09", "unit": "M"}, {"measurement": "Concentrations of endogenous brain oxytocin (OT)", "setting": "dPFC, 80 IN, monkey #4 (M)", "result": "1e-09", "unit": "M"}, {"measurement": "Concentrations of endogenous brain oxytocin (OT)", "setting": "dPFC, 80 IV, monkey #3 (F)", "result": "2e-09", "unit": "M"}, {"measurement": "BRAIN OT concentration (endogenous)", "setting": "dPFC, after d5OT 40 IU IN, monkey #5 (F), perfused 138 min post-dose", "result": 0.16, "unit": "pg/mg"}, {"measurement": "BRAIN OT concentration (endogenous)", "setting": "dPFC, after d5OT 80 IU IN, monkey #4 (M), perfused 135 min post-dose", "result": 0.20, "unit": "pg/mg"}, {"measurement": "BRAIN OT concentration (endogenous)", "setting": "dPFC, after d5OT 80 IU IV, monkey #3 (F), perfused 149 min post-dose", "result": 0.27, "unit": "pg/mg"}, {"measurement": "BRAIN OT concentration (endogenous)", "setting": "mPFC, after d5OT 40 IU IN, monkey #1 (F), perfused 148 min post-dose", "result": 0.86, "unit": "pg/mg"}, {"measurement": "BRAIN OT concentration (endogenous)", "setting": "mPFC, after d5OT 40 IU IN, monkey #5 (F), perfused 138 min post-dose", "result": 0.88, "unit": "pg/mg"}, {"measurement": "BRAIN OT concentration (endogenous)", "setting": "mPFC, after d5OT 80 IU IN, monkey #4 (M), perfused 135 min post-dose", "result": 0.45, "unit": "pg/mg"}]}]}
